Reference: patent US20220401500A1, “BACTERIA AND HERBAL EXTRACT NUTRACEUTICAL BLENDS FOR LUNG HEALTH MAINTENANCE” (THE UAB RESEARCH FOUNDATION, priority 2021, published 2022)

How the values were obtained:
[1] = system: mice
[2] = system: probiotic strains RSB11, RSB12, or RSB13; test: Culture growth of probiotic strains with herbal extracts or Vitamin D; assay type: cell-based, Lactobacillus; settings: number of colonies per plate; FIG. 11
[3] = system: C57BL/6 mouse pups; test: In vivo (mouse) dysbiosis model of chronic lung disease, LPS-treated pups
[4] = system: Ac-PGP; test: Loss of function of Ac-PGP by treatment with RTR in vivo; set-up: species or system mouse

N-acetyl-Proline-Glycine-Proline [Ac-PGP]
NE concentrations ([1]; BALF, normoxia and noxious stimuli, P<0.05, FIG. 8C): increased | MPO concentration ([1]; ELISA, normoxia and noxious stimuli, P<0.05, FIG. 8B): increased | chronic lung disease ([1]; gain of function, in vivo, FIG. 8): causes chronic lung disease | RAC counts ([1]; normoxia and noxious stimuli, P<0.05, FIG. 8A): decreased | right ventricular hypertrophy (RVH) ([1]; normoxia and noxious stimuli, P<0.05, FIG. 8D): increased

Vitamin D
culture growth of probiotic strains RSB11, RSB12, RSB13 [2]: do not have an inhibitory effect

lipopolysaccharide [LPS]
Ac-PGP levels ([3]; BALF, by HPLC, vs controls, P<0.05, FIG. 7E): significantly increased | myeloperoxidase (MPO) levels ([3]; BALF, vs controls, P<0.05, FIG. 7C): significantly increased | neutrophil elastase (NE) levels ([3]; BALF, vs controls, P<0.05, FIG. 7D): significantly increased | lung tissue structure ([3]; LPS-treated C57BL/6 mouse pups, FIG. 7A): alveolar hypoplasia and simplification | radial alveolar counts (RAC) ([3]; vs controls, P<0.05, FIG. 7B): significantly decreased

Arginine-Threonine-Arginine [RTR]
chronic lung disease ([4]; in vivo, FIG. 9): protective | RAC ([4]; noxious stimuli, LPS+RTR vs LPS alone, P<0.05, FIG. 9B): significantly higher | MPO concentrations ([4]; noxious stimuli, LPS+RTR vs LPS alone, P<0.05, FIG. 9C): significantly lower | RVH ([4]; noxious stimuli, LPS+RTR vs LPS alone, P<0.05, FIG. 9D): significantly less severe
